Measured values: US8476253B2, “Amide derivative” (Daiichi Sankyo Company, Limited, priority 2009, dated 2013)
Where a name gives a salt, the structure may show the parent alone.

Assays:
neurokinin NK2 receptor = biological target: T1, neurokinin NK2 receptor (Cavia porcellus, UniProt Q64077); assay: Effect of suppressing neurokinin A-induced airway contraction (in vivo, intratracheal administration); set-up: species or system guinea pig; conditions: guinea pig; guinea pigs, intratracheal administration 60 minutes before 4 μg/kg i.v. NKA; AUC of increase in airway pressure over 10 minutes; read-out: ID50 (the source's name)
T1 construct: Using healthy guinea pigs (body weight, 350 to 550 g; Hartley male guinea pigs); from tissue; host or cells: live anaesthetised Hartley male guinea pigs (airway, in vivo)
T1 sequence (Q64077 1-402): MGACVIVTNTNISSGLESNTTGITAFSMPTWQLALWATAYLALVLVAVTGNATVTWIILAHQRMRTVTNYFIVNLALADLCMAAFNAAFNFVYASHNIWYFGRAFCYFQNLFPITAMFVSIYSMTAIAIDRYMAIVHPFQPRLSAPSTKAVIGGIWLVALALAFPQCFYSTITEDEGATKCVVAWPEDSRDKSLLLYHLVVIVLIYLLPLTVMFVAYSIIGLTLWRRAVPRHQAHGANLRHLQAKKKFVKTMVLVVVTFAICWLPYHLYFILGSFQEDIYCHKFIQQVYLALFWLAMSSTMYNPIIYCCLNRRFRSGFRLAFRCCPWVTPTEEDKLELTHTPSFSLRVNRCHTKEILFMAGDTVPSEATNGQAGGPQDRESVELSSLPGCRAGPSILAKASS
How it was run: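 Anesthetized, gallamine-paralysed, ventilated male Hartley guinea pigs received compound in 5% glucose intratracheally 60 minutes before 4 μg/kg NKA i.v. AUC of airway pressure increase over 10 minutes gave inhibition versus vehicle controls, expressed as ID50.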

human M3 receptor = biological target: T2, human M3 receptor (Homo sapiens, UniProt P20309); assay: Test for binding to human M3 receptor; conditions: CHO cells expressing human M3 receptor, [N-methyl-3H]-(-)-Scopolamine methyl chloride 0.5 nM; Ki from IC50 and Kd; read-out: Ki
T2 construct: expressed in transfected cells; host or cells: CHO cells
T2 sequence (P20309 whole entry): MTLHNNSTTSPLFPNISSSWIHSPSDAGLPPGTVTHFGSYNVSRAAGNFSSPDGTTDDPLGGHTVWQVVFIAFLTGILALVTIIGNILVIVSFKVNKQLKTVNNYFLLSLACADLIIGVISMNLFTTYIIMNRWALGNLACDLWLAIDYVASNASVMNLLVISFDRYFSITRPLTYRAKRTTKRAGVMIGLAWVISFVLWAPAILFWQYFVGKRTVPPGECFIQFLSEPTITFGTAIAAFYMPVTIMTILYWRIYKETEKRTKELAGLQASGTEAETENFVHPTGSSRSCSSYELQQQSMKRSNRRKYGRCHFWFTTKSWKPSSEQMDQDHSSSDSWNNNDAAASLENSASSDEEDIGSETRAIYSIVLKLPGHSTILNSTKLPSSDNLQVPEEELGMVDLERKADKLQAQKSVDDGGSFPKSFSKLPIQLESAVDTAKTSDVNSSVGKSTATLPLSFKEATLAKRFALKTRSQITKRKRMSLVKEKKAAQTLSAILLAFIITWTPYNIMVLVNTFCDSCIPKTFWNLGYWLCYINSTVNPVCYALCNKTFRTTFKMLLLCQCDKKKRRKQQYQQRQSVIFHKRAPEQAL
How it was run: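 CHO-cell crude membranes expressing human M3 were incubated with [N-methyl-3H]-(−)-scopolamine methyl chloride in 50 mM Tris-HCl, 0.5 mM EDTA, pH 7.4, for 60 min at room temperature. Bound ligand was collected on PEI-pretreated glass-fibre filters and counted by liquid scintillation. Ki was calculated from IC50 and the radioligand Kd.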

neurokinin NK1 receptor = biological target: T3, neurokinin NK1 receptor (Cavia porcellus, UniProt P30547); assay: Effect of suppressing substance P-induced airway contraction (in vivo, intratracheal administration); set-up: species or system guinea pig; conditions: guinea pig; guinea pigs, intratracheal administration 60 minutes before 20 μg/kg i.v. SP; AUC of increase in airway pressure over 10 minutes; read-out: ID50 (the source's name)
T3 construct: Using healthy guinea pigs (body weight, 350 to 550 g; Hartley male guinea pigs); from tissue; host or cells: live anaesthetised Hartley male guinea pigs (airway, in vivo)
T3 sequence (P30547 whole entry): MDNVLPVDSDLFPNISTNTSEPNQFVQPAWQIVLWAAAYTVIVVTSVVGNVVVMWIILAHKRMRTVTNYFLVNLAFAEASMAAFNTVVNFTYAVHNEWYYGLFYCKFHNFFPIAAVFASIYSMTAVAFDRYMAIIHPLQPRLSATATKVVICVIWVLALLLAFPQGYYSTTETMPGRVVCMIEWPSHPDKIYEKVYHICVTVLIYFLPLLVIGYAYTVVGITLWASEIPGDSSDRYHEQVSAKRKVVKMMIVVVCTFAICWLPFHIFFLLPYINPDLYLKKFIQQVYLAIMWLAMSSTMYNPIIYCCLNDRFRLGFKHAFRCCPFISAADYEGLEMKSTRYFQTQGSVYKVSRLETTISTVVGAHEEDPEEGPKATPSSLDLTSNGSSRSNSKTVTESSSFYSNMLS
How it was run: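 Anaesthetised, gallamine-paralysed, ventilated male Hartley guinea pigs; compound in 5% glucose given intratracheally 60 min before 20 μg/kg i.v. substance P. Airway-pressure increase AUC over 10 min, inhibition versus vehicle group, expressed as ID50.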

`CN(CCN1CCC(OC(=O)Nc2ccccc2-c2ccccc2)CC1)C(=O)CCCCN(C)c1ccc(C(=O)N(C)CCCN(C)C(=O)CO[C@H]2Cc3ccccc3C23CCN(CC[C@@]2(c4ccc(F)cc4)CN(C(=O)c4cc(C(F)(F)F)cc(C(F)(F)F)c4)CO2)CC3)cc1` [Example 38, 1-{2-[{5-[{4-[{3-[({[(2S)-1′-{2-[(5R)-3-[3,5-Bis(trifluoromethyl)benzoyl]-5-(4-fluorophenyl)-1,3-oxazolidin-5-yl]ethyl}-2,3-dihydrospiro[indene-1,4′-piperidin]-2-yl]oxy}acetyl)(methy)amino]propyl}(methyl)carbamoyl]phenyl}(methyl)amino]pentanoyl}(methyl)amino]ethyl}piperidin-4-yl biphenyl-2-ylcarbamate trihydrochloride] gave an ED50 (neurokinin NK2 receptor) of 0.0253 mg/kg, a Ki (human M3 receptor) of 1.8 nM and an ED50 (neurokinin NK1 receptor) of 0.0161 mg/kg.
